According to patent US6462178B1, “G protein” (Yong Hou Wong, priority 1999, dated 2002):
Where two headings read alike, the source gives them in different places. Values belong to the compound of their own block, whether it stands above or below them.

Tests used:
[1] = molecular target: bombesin receptor
[2] = molecular target: T1, melatonin Mel1a receptor (Homo sapiens, UniProt P48039); assay: IP accumulation, melatonin Mel1a receptor coexpressed with Gα subunit in COS-7; type: cell-based; conditions: 1 μM 2-iodomelatonin; for IP Formation % Res.: relative to basal
T1 construct: expressed in transfected cells; host or cells: COS-7

[3] = molecular target: T2, melatonin Mel1b receptor (Homo sapiens, UniProt P49286); assay: IP accumulation, melatonin Mel1b receptor coexpressed with Gα subunit in COS-7; type: cell-based; conditions: 1 μM 2-iodomelatonin; for IP Formation % Res.: relative to basal
T2 construct: expressed in transfected cells; host or cells: COS-7
T2 sequence (P49286 1-362): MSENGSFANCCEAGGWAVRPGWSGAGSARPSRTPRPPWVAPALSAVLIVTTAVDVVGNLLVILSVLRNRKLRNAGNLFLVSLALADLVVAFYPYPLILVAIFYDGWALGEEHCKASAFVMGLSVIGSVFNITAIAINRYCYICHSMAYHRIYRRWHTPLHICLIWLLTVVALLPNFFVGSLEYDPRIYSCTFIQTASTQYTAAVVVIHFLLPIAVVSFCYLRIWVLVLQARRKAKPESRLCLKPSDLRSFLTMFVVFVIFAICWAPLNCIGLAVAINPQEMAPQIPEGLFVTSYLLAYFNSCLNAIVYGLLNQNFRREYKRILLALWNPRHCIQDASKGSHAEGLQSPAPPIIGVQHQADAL

[4] = molecular target: T3, melatonin Mel1c receptor (Xenopus laevis, UniProt P49219); assay: IP accumulation, melatonin Mel1c receptor coexpressed with Gα subunit in COS-7; type: cell-based; conditions: for IP Formation Agonist / IP Formation % Res.: 1 μM 2-iodomelatonin; for IP Formation % Res.: relative to basal
T3 construct: expressed in transfected cells; host or cells: COS-7
T3 sequence (P49219 1-420): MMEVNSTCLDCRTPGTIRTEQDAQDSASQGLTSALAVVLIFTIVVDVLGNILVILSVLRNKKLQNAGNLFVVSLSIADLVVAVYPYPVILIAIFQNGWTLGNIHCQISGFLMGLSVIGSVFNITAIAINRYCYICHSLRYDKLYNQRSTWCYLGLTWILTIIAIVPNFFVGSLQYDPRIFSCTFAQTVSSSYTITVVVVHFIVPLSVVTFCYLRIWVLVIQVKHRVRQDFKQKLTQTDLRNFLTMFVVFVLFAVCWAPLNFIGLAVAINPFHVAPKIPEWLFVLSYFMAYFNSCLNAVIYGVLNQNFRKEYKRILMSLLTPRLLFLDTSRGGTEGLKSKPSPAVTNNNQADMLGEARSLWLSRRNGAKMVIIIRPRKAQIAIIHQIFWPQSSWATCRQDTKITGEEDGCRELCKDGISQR

[5] = system: α2-adrenergic receptor; conditions: 1 μM UK14,304; for IP Formation % Res.: relative to basal
[6] = molecular target: somatostatin-1 receptor (SSTR1)
[7] = molecular target: complement C5a receptor
[8] = molecular target: vasopressin V2 receptor
[9] = COS-7, receptor + 16z25 chimera
[10] = COS-7, receptor + 16z44 chimera

T1 sequence (P48039 whole entry): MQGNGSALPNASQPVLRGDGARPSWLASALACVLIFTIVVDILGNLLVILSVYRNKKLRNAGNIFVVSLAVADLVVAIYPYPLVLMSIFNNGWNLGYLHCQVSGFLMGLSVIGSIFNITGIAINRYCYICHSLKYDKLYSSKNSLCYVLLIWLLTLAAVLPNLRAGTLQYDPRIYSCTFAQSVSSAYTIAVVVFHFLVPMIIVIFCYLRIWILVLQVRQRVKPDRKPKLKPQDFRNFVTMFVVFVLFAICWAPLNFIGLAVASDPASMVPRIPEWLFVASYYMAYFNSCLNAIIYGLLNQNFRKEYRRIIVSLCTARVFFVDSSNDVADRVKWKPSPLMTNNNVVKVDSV

- IP formation with agonist (control cells without 16z44) (IP formation (unit not given)) [1]: 149
Compound: bombesin (peptide)

Compound: COc1ccc2[nH]c(I)c(CCNC(C)=O)c2c1 [2-iodomelatonin]
- IP Formation Agonist [2, 9]: 80.4 ± 4.0
- IP Formation % Res. [2, 9]: 150%
- IP Formation Agonist [2, 10]: 91.9 ± 8.8
- IP Formation % Res. [2, 10]: 171%
- IP Formation Agonist ([2]; COS-7, receptor + Gα16): 45.6 ± 6.0
- IP Formation % Res. ([2]; COS-7, receptor + Gα16): 296%
- IP Formation Agonist [3, 9]: 108.3 ± 3.6
- IP Formation % Res. [3, 9]: 155%
- IP Formation Agonist [3, 10]: 113.2 ± 7.3
- IP Formation % Res. [3, 10]: 177%
- IP Formation Agonist ([3]; COS-7, receptor + Gα16): 31.7 ± 2.3
- IP Formation % Res. ([3]; COS-7, receptor + Gα16): 195%
- EC50 ([4]; COS-7, Mel1c + 16z44, read-out: EC50, formation of IP): ~0.4 nM
- stimulation of PLC activity ([4]; COS-7, Mel1c + Gα16, 0.03-100 nM): did not stimulate PLC activity
- IP Formation Agonist [4, 9]: 42.5 ± 6.7
- IP Formation % Res. [4, 9]: 270%
- IP Formation Agonist [4, 10]: 86.8 ± 7.0
- IP Formation % Res. [4, 10]: 307%
- IP Formation % Res. ([4]; COS-7, receptor + Gα16): 115%

Compound: Brc1c(NC2=NCCN2)ccc2nccnc12 [UK14,304]
- IP Formation Agonist [5, 9]: 116.1 ± 8.8
- IP Formation % Res. [5, 9]: 365%
- IP Formation Agonist [5, 10]: 126.7 ± 1.5
- IP Formation % Res. [5, 10]: 297%
- IP Formation Agonist ([5]; COS-7, receptor + Gα16): 107.4 ± 9.6
- IP Formation % Res. ([5]; COS-7, receptor + Gα16): 730%

- EC50 for IP formation (cells coexpressing 16z44) [6]: 3 nM
- EC50 for IP formation (cells coexpressing Gα16) [6]: 20 nM
Compound: somatostatin (peptide)

- IP formation with agonist (cells coexpressing 16z44) (IP formation (unit not given)) [7]: 87.4
Compound: C5a (ligand)

- IP formation with agonist (cells coexpressing 16z44) (IP formation (unit not given)) [8]: 59.8
Compound: vasopressin (peptide)
